Data on four compounds can be found in article PMC2731040 (BMC Clinical Pharmacology, 2009).

Molecules are shown by their SMILES. “Also recorded” adds a separate entry of the source.

Data set [1] can be described thus: Plasma pharmacokinetics of cocaine and benzoylecgonine after IV cocaine-d5 infusion. Conditions: for Cmax: cocaine-d5 IV 0.5 mg/kg over 10 min then 2 mg/kg over 4 h; for Cmax / (t1/2)z / AUC (0-∞) / AUC(0-t) / AUCext / Tmax / λz: mean ± SD. On the procedure:
In this open-label, unblinded study, a 0.5 mg/kg intravenous loading dose of cocaine-d5 HCl over 10 minutes was followed by a slow 4 hour constant rate cocaine-d5 infusion of 2.0 mg/kg(~175 mg for a 70 kg person). […] When this method of cocaine administration is utilized, a larger dose can be given over a longer period of time and approximates frequently reported patterns of cocaine use. This method also allowed for close monitoring and termination of the infusion if untoward psychiatric or cardiovascular effects occurred.
For both cocaine infusions (sessions 1 and 2), plasma samples for cocaine and metabolites (~6 ml) were obtained 5 minutes before and 10 minutes, 0.5, 1, 1.5, 2, 4, 4.25, 4.5, 5, 6, 8, 12, 21, 27, 33, and 45 hours after each cocaine infusion.
Plasma concentrations of cocaine and benzoylecgonine were measured in our laboratory using a method we developed. The method allows for simultaneous determination of cocaine, benzoylecgonine, and deuterium-labeled analogs [cocaine-d5 and benzoylecgonine-d5 (BE-d5)] by using combined gas chromatography-mass spectrometry (GC-MS). Differently labeled stable isotope analogs were used as internal standards. The calibration curves were from 5 to 2,000 ng/mL for cocaine-d5 and 10 to 2,000 ng/mL for BE-d5. Lower limits of quantitation (LLOQ) were 5 ng/ml (cocaine-d5) and 10 ng/ml (BE-d5) in plasma. Qualitative urine benzoylecgonine was measured by Northwest Toxicology Laboratory, Salt Lake City, Utah, using the Roche Diagnostics Online® immunoassay.
The plasma concentration-time profiles for cocaine and benzoylecgonine (BE) were analyzed by non-compartmental methods, utilizing the pharmacokinetic data analysis program WinNonlin Pro, version 3.0 [31].
The area under the plasma concentration-time curve was calculated using the linear trapezoidal rule up to the maximum plasma concentration, and thereafter using the logarithmic trapezoidal rule to the last measurable plasma concentration. The remaining area was extrapolated to infinity by dividing the last appropriate plasma concentration by the terminal exponential rate constant.
Maximum plasma concentration (Cmax) and time of maximum plasma concentration (Tmax) were determined by visual inspection of data. "Terminal" exponential half-life [(t1/2)z] was calculated from log-linear regression of "terminal" exponential phase data points. Cocaine clearance (CL) and terminal exponential volume of distribution (Vz) were calculated by conventional equations: CL = [Dose/Area under the curve (AUC)0-∞] and Vz = CL/λz, respectively, where λz ("terminal" exponential rate constant) = ln2/(t1/2)z. […] Amount of BE in urine samples was calculated by multiplying concentration by volume.

Data set [2] can be described thus: Selegiline and metabolites excreted in 24 hour urine collections. The format is in vivo, human. Also on record: unit not given here. The following applies: Mean ± SD, N = 12. The procedure:
(§1) When subjects were in the GCRC, all urine was collected and volumes recorded. Following each cocaine infusion, urine was collected in fractions from 0 to 24, 24 to 48, and 48 to 72 hours (timed from the start of the infusion). Samples were then frozen at -70°C until analyzed. […] A qualitative screen for drugs of abuse was obtained every other day for the entire study period.
(§2) All analyses employed a one-factor repeated-measures analysis of variance (ANOVA), with all parameters analyzed as their logarithmic (natural) transforms. If a day effect was found between days 9, 11, 12, and 13, a Tukey multiple comparison procedure was employed posthoc to compare the days in pairs. A test for linear trend was included. All probability estimates presented are based on the Type III sums of squares.

Data set [3] has as its system nondependent cocaine-experienced subjects. Description: Physiologic measures during cocaine challenge sessions. The format is in vivo, human. Conditions: session 2 vs session 1; peak effects and effects across time. On the procedure:
Heart rate, systolic and diastolic blood pressure were measured using a cardiovascular monitor (Dinamap by Critikon, Vital Signs Monitor 1846 SX). Rate pressure product was calculated as the product of systolic blood pressure and heart rate. Respiration rate was measured by counting the number of inhalations per minute. These vital signs were determined with the patient in a supine position for at least 10 minutes.
(§3) Heart rate, blood pressure, respiration rate, skin and core temperature were recorded at specific times during the study. During infusions, measures were obtained pre-dose and at 0.17, 0.5, 0.75, 1, 1.5, 2, 2.5, 3, 3.5, 4, 4.25, 4.5, 5, 6, 8, 12, 18, 24, 36, 48, and 72 hours after dosing. The electrocardiogram was monitored continuously during the infusion and for 4 hours after the termination of the intravenous cocaine infusion. EKG tracings were recorded at each data collection point.
(§4) The time courses of physiologic and subjective data were analyzed by repeated measures analysis of variance (ANOVA). Treatment conditions (Sessions 1 and 2) and observation times (hours post-dose) were considered within-subject factors. Change scores (post-dose minus pre-dose values) were used in most analyses. Raw score were used where indicated. After a significant F test, pairwise comparisons of treatment conditions were performed using the least squares means analysis. Peak effects within a session were determined for each subject and each variable and analyzed using a one-factor repeated measures ANOVA. Effects were considered statistically significant at p = 0.05. Data were adjusted for sphericity using the Huynh-Feldt adjustment factor. Huynh-Feldt-corrected significance values are reported.

The test system is the same in data set [4]. Description: Subjective measures (verbal ratings, visual analog scales, POMS) during cocaine challenge sessions. In kind it is in vivo, human.
Source text: Verbal ratings of global intoxication and craving (on a scale of 0 to 100) were obtained at the same time points as the physiologic measures, with 0 representing no drug effect and 100 representing the highest level of intoxication or craving.
Visual analog scales were used to rate the degree of drug liking by moving an arrow along a 10 cm line marked at opposite ends as 0 (not at all) and 100 (extreme) using a hand-held computer (Tandy 102). Items rated on the visual analog scale included "good drug effect" and "bad drug effect," and were obtained prior to cocaine infusion and at 0.17, 0.5, 0.75, 1, 1.5, 2, 2.5, 3, 3.5, 4, 4.25, 4.5, 5, 6, and 8 hours after dosing.
The Profile of Mood States (POMS) assessed mood changes in Anger, Confusion, Fatigue, Tension, and Vigor on a scale from 0 to 4, where 0 indicated "no effect" and 4 indicates "extremely strong". Ratings were obtained prior to cocaine infusion and at 1, 3, and 6 hours after dosing.
as §4

The test system of a further data set is noradrenergic tone. Description: Urinary MHPG-S excretion (surrogate for noradrenergic tone, MAO-A metabolite). The format is in vivo, human.
Source text: The interactions between MAO-A inhibitors and cocaine administered are largely unexplored. […] Therefore, measurement of dopaminergic and noradrenergic tone may be important in predicting toxic events. We measured dopaminergic tone with the surrogate marker of plasma HVA, the major brain metabolite of dopamine, and serum levels of prolactin, a hormone whose secretion is inhibited by dopamine. The surrogate for noradrenergic tone was urine concentrations of MHPG-S. In order to assess the degree of MAO-A and MAO-B inhibition, we assayed concentrations of a substrate of MAO-B, phenylethylamine (PEA). PEA would be expected to increase with MAO-B inhibition, and concentrations of MHPG-S, which is a metabolite of norepinephrine produced by MAO-A primarily in the brain [20], would be expected to decrease.
as §1
Concentrations of MHPG-S in urine were determined using LC-MS/MS [29]. […] As urinary creatinine excretion is directly related to glomerular filtration and renal blood flow, and urinary creatinine excretion is relatively constant (~1 gm/day), it can be used to estimate concentrations of a substance during a 24 hour urine collection period. Using ratios of the concentrations of MHPG-S to creatinine obtained from assays of these spot urine samples, MGPG-S concentrations during the outpatient period (when subjects would be unlikely to provide accurate 24 hour urine collections) were compared to those from urine samples on inpatient days.

Data set [5] has as its system nondependent cocaine-experienced subjects. The data set is described as follows: Adverse events and cardiovascular safety monitoring. In kind it is in vivo, human. The following applies: STS 6 mg/24 hours. The procedure:
as §3

The nature of data set [6]: Trough plasma concentrations of selegiline and metabolites. The format is in vivo, human. The following applies: days 9, 11, 12, and 13 of STS; p for linear trend <0.001 (l-methamphetamine) and <0.01 (l-amphetamine).
Source text: as §2

Where [7] appears, read: Pre Selegiline (session 1), plasma.
The mark [8] stands for this setting: With Selegiline (session 2), plasma.
The mark [9] stands for this setting: 0–24 hours after cocaine (day 11), STS 6 mg/24 hours.
Where [10] appears, read: 24–48 hours after cocaine (day 12), STS 6 mg/24 hours.
Setting [11] is: 48–72 hours after cocaine (day 13), no patch applied at 9 AM on day 14.

Regarding `CN1[C@H]2CC[C@@H]1[C@@H](C(=O)O)[C@@H](OC(=O)c1ccccc1)C2` [Benzoyl-ecgonine, benzoylecgonine], in data set [1] (setting [7]), the maximum concentration (Cmax) came to 1045 ± 180 ng/mL, the “(t1/2)z” value amounted to 8.63 ± 5.36 h, the “AUC (0-∞)” value came out at 13600 ± 3820 ng·h/mL and the “AUC(0-t)” value turned out to be 13000 ± 3030 ng·h/mL. Also, in data set [1] (setting [7]), the AUCext came out at 3.45 ± 6.45%, the time to peak (Tmax) stood at 4.79 ± 0.50 h and the λz worked out at 0.0928 ± 0.023 h⁻¹. In data set [1] (setting [8]), the “(t1/2)z” value amounted to 7.52 ± 1.82 h, the “AUC (0-∞)” value was determined as 13200 ± 4180 ng·h/mL, the “AUC(0-t)” value was 12900 ± 3760 ng·h/mL and the AUCext is on record as 2.21 ± 2.24%. In data set [1] (setting [8]), the Tmax worked out at 5.04 ± 0.65 h and the λz stood at 0.0971 ± 0.024 h⁻¹. The same compound gave a Cmax in data set [1] (With Selegiline (session 2, after one week STS 6 mg/24 hours), plasma) of 957 ± 184 ng/mL. In addition, the “BE AUC relative to that of cocaine” value in data set [1] (plasma, after IV cocaine-d5 infusion) was “approximately 5.9 times”.

As for `C#CCN(C)[C@H](C)Cc1ccccc1` [Selegiline, selegiline], the “Effect of selegiline on cocaine or BE plasma pharmacokinetics” value in data set [1] (after removal of the two outliers, STS 6 mg/24 hours for one week) is on record as “No effect”. Besides, the “Excreted in the 24 Hour Urine” value in data set [2] (setting [9]) stood at 0.109 ± 0.073; in data set [2] (setting [10]), 0.145 ± 0.138; in data set [2] (setting [11]), 0.063 ± 0.097. For the same compound, the “Effect of selegiline on cocaine-induced physiological effects” value in data set [3] is given as “Neither peak effects (Table 3) nor physiological effects across time were affected”. Further, the “Verbal ratings of craving, second session vs first” value in data set [4] (between 1.5 and 4.5 hours after cocaine, condition × time significant) was “lower”. Also, in data set [4] (second cocaine session (after selegiline)), the “POMS anger, tension and total score scales across time, second session vs first” value is “significantly different (lower)”. Besides, the “Total Amount of MHPG-S Excreted in the 24 Hour Urine Collection” value with noradrenergic tone (Day 4–5, 0–24 hr Postselegiline) is recorded as 1.43 ± 0.40 mg; with noradrenergic tone (Day 11–12 Selegiline Phase 1st Day After Cocaine), 1.09 ± 0.23 mg; in the data set on noradrenergic tone (Day 12–13 Selegiline Phase 2nd Day After Cocaine), 1.07 ± 0.40 mg; in the data set on noradrenergic tone (Day 13–14 Selegiline Phase 3rd Day After Cocaine, no patch applied at 9 AM on Day 14), 1.01 ± 0.33 mg. Further, the Adverse events entry in data set [5] (cocaine-d5 IV 2.5 mg/kg over 4 hours, 2.5 mg/kg) is “One subject reported erectile dysfunction; also recorded: One subject experienced anxiety and one reported insomnia”. The “Cardiovascular adverse effects (orthostatic vital signs and cardiovascular monitoring)” value in data set [5] (selegiline maintenance phase) is reported as “no adverse cardiovascular effects”.

As to `C#CCNC(C)Cc1ccccc1` (centres unmarked) [Desmethylselegiline, n-desmethylselegiline], the “Excreted in the 24 Hour Urine” value came out at 0.184 ± 0.128 in data set [2] (setting [9]), 0.188 ± 0.162 in data set [2] (setting [10]) and 0.082 ± 0.086 in data set [2] (setting [11]).

On to `CN[C@H](C)Cc1ccccc1` [l-Methamphetamine, l-methamphetamine], for which the “Excreted in the 24 Hour Urine” value in data set [2] (setting [9]) is recorded as 6.26 ± 2.28; in data set [2] (setting [10]), 8.51 ± 5.69; in data set [2] (setting [11]) it was 4.83 ± 1.55. In data set [6], the “Trough plasma concentrations over time” value is given as “increased over time”.
